# Where a name gives a salt, the structure may show the parent alone.
# How the values were obtained:
# P. expansum = assay: Protection of wounded apples against postharvest rot (lesion diameter); format: in vivo, Penicillium expansum
# Procedure: (§1) Apples (Malus domestics Borkh cv. Golden) were harvested from commercial orchards maintained with standard cultural practices in Belgium and placed in regular long term storage. Commercial class I fruits were used. They were bought from wholesale dealers and stored in a cold room at 4±1° C. for maximum 15 days before use.
# (§2) B. cinerea (grey mould) and Penicillium expansum (blue mould) strains were initially isolated from strawberries and apples respectively in Gembloux.
# (§3) Conidia from the two pathogenic strains were put in suspension in a glycerol solution (25%) and stored at −70° C. Another storage method consisted of growing the pathogen on Potato Dextrose Agar (PDA) in tubes, covering it then by paraffin oil and keeping the tubes at 25° C. Starting from this stored material, the two fungal strains were transferred to oat medium at 25° C. Conidial suspensions were prepared in an aqueous sterile solution of Tween 20 (0.05%), and were adjusted to the required concentration (10^6 spores/ml) using a Bärker cell.
# (§4) Before use, the micro-organisms were subcultured three times successively at 24 hours intervals on PDA (Potato Dextrose Agar). At the third generation, yeast cells were removed from the culture medium and suspended in isotonic water (NaCl 0.85%). Suspension concentrations were adjusted to the required values after the establishment of a regression line in relation with the micro-organisms suspension absorbance (at 595 nm) and the number of colony forming units (cfu) of the same suspension spread onto PDA.
# (§5) Fruits were disinfected by dipping for 2 minutes in sodium hypochlorite (10% of the commercial product). They were rinsed in sterile water and dried out under laminar flux before being wounded by removing 6 mm diameter and 3 mm deep blocks of tissue from two sites 4-5 cm apart along the equatorial line of the fruits.
# (§6) The wounds were treated by application of 50 μl of compositions of the state of the art or compositions of the invention.
# (§7) After a 24 h at 20° C. incubation period in plastic boxes, the wounds have been inoculated with 50 μl of the respective conidial suspensions of the pathogens. The fruits were incubated during one to three weeks at 25° C.
# […] Four fruits (8 wounds) were used per treatment.
# (§8) The percentage of protection provided by the different treatments is calculated from the diameter of lesion caused by the fruit rot agent after the incubation time using the following formula:
# (§9) [formula] where Y is the percentage of protection; DT is the mean diameter of lesions for the untreated control and Dx is the mean diameter of lesions for the treated fruits.
# (§10) Vegetal material, pathogens, antagonistic micro-organisms and treatment method were as in example 1. The wounds were treated by application of 50 pi of compositions of the state of the art or compositions of the invention. The effect of the compositions against postharvest apple rots caused by B. cinerea has been evaluated under controlled conditions.
# B. cinerea = assay: as above; format: in vivo
# Procedure: as §1, §2, §3, §4, §5, §6, §7
# The diameters of the lesions developing around the wounds were measured after 7, 10, 14 and up to 20 days after treatment. Four fruits (8 wounds) were used per treatment.
# as §8, §9, §10
# P. digitatum = assay: Protection of wounded oranges against green mould; format: in vivo, Penicillium digitatum strain CBS31948; settings: Table 7, GA 0.01% w/v
# Procedure: Oranges (Citrus sinensis (L.) Ohl. cv. Valencia) were bought from wholesale dealers and stored in a cold room at 4±1° C. for maximum 15 days before use.
# Penicillium digitatum strain CBS31948 (green mould of oranges) was obtained from the CentraalBureau Schimmelcultures, Netherlands collection and initially isolated from Citrus fruits. Conidia from the pathogenic strain were put in suspension in a glycerol solution (25%) and stored at −70° C. Starting from this stored material, the fungal strain was transferred to oat medium at 25° C. Conidial suspensions were prepared in an aqueous sterile solution of Tween 20 (0.05%). Before use, suspensions have been adjusted to the required concentration (10^5 spores/ml) using a Barker cell.
# The antagonistic yeast strain P. anomala “strain K” was obtained as in example 1. C. oleophila strain I-182 commercialised under the name Aspire™ was obtained from Ecogen Inc. Both microorganisms were subcultured as in example 1.
# Fruits were disinfected and wounded as in example 1. […] The percentage of protection is calculated as in example 1.
# Vegetal material, pathogens, antagonistic agents and treatment method were as in example 3. […] The effect of the compositions against postharvest rots caused by P. digitatum has been evaluated under controlled conditions.
# [1] = Table 12, M (mannans) 0.02% w/v
compound,measurement,setting,value
"polygalacturonic acid [PGA, reference compound]",% protection against P. expansum after 6 days,"P. expansum; Table 4, PGA 0.001% w/v",19%
same,% protection against P. expansum after 8 days,"P. expansum; Table 4, PGA 0.001% w/v",12%
same,% protection against P. expansum after 10 days,"P. expansum; Table 4, PGA 0.001% w/v",10%
mannans,% protection against B. cinerea after 7 days,B. cinerea; [1],100%
same,% protection against B. cinerea after 10 days,B. cinerea; [1],78%
same,% protection against B. cinerea after 14 days,B. cinerea; [1],55%
same,% protection against B. cinerea after 20 days,B. cinerea; [1],16%
same,% protection against B. cinerea after 7 days,"B. cinerea; Table 12, M (mannans) 0.2% w/v",100%
same,% protection against B. cinerea after 10 days,"B. cinerea; Table 12, M (mannans) 0.2% w/v",93%
same,% protection against B. cinerea after 14 days,"B. cinerea; Table 12, M (mannans) 0.2% w/v",68%
same,% protection against B. cinerea after 20 days,"B. cinerea; Table 12, M (mannans) 0.2% w/v",26%
same,% protection against B. cinerea after 7 days,"B. cinerea; Table 13, M 0.02% w/v",100%
same,% protection against B. cinerea after 10 days,"B. cinerea; Table 13, M 0.02% w/v",78%
same,% protection against B. cinerea after 14 days,"B. cinerea; Table 13, M 0.02% w/v",55%
same,% protection against B. cinerea after 20 days,"B. cinerea; Table 13, M 0.02% w/v",16%
same,% protection against B. cinerea after 7 days,"B. cinerea; Table 13, M 0.2% w/v",100%
same,% protection against B. cinerea after 10 days,"B. cinerea; Table 13, M 0.2% w/v",93%
same,% protection against B. cinerea after 14 days,"B. cinerea; Table 13, M 0.2% w/v",68%
same,% protection against B. cinerea after 20 days,"B. cinerea; Table 13, M 0.2% w/v",28%
"O=C[C@H](O)[C@@H](O)[C@H](O)[C@H](O)C(=O)O [GU, glucuronic acid (sodium salt)]",% protection against B. cinerea after 7 days,"B. cinerea; Table 1, GU 0.001% w/v",75%
same,% protection against B. cinerea after 10 days,"B. cinerea; Table 1, GU 0.001% w/v",46%
same,% protection against B. cinerea after 14 days,"B. cinerea; Table 1, GU 0.001% w/v",46%
same,% protection against B. cinerea after 20 days,"B. cinerea; Table 1, GU 0.001% w/v",21%
same,% protection against B. cinerea after 7 days,"B. cinerea; Table 2, GU 0.001% w/v",75%
same,% protection against B. cinerea after 10 days,"B. cinerea; Table 2, GU 0.001% w/v",46%
same,% protection against B. cinerea after 14 days,"B. cinerea; Table 2, GU 0.001% w/v",46%
same,% protection against B. cinerea after 20 days,"B. cinerea; Table 2, GU 0.001% w/v",21%
"O.O=C[C@H](O)[C@@H](O)[C@@H](O)[C@H](O)C(=O)O [GA, galacturonic acid (monohydrate)]",% protection against B. cinerea after 7 days,"B. cinerea; Table 1, GA 0.01% w/v",49%
same,% protection against B. cinerea after 10 days,"B. cinerea; Table 1, GA 0.01% w/v",42%
same,% protection against B. cinerea after 14 days,"B. cinerea; Table 1, GA 0.01% w/v",22%
same,% protection against B. cinerea after 20 days,"B. cinerea; Table 1, GA 0.01% w/v",2%
same,% protection against B. cinerea after 7 days,"B. cinerea; Table 2, GA 0.001% w/v",87%
same,% protection against B. cinerea after 10 days,"B. cinerea; Table 2, GA 0.001% w/v",47%
same,% protection against B. cinerea after 14 days,"B. cinerea; Table 2, GA 0.001% w/v",33%
same,% protection against B. cinerea after 20 days,"B. cinerea; Table 2, GA 0.001% w/v",0%
same,% protection against B. cinerea after 7 days,"B. cinerea; Table 3, GA 0.01% w/v",12%
same,% protection against B. cinerea after 7 days,"B. cinerea; Table 13, GA 0.001% w/v",87%
same,% protection against B. cinerea after 10 days,"B. cinerea; Table 13, GA 0.001% w/v",47%
same,% protection against B. cinerea after 14 days,"B. cinerea; Table 13, GA 0.001% w/v",33%
same,% protection against B. cinerea after 20 days,"B. cinerea; Table 13, GA 0.001% w/v",0%
same,% protection against P. digitatum after 7 days,P. digitatum,58%
same,% protection against P. digitatum after 10 days,P. digitatum,36%
same,% protection against P. expansum After 7 days,"P. expansum; Table 3, GA 0.01% w/v",18%
same,% protection against P. expansum after 6 days,"P. expansum; Table 4, GA 0.001% w/v",15%
same,% protection against P. expansum after 8 days,"P. expansum; Table 4, GA 0.001% w/v",9%
same,% protection against P. expansum after 10 days,"P. expansum; Table 4, GA 0.001% w/v",7%
